Test results reported in the supplement of paper PMC13380429.
± gives the standard deviation of the averaged measurements.

How the values were obtained:
Conditions in all cases: 72 h
[1] = test system: Calu-3; experiment: cell viability relative to DMSO; higher = less toxic
[2] = test system: Vero E6; experiment: as above
[3] = test system: HepG2; experiment: as above
[4] = test system: U2OS; experiment: as above
[5] = test system: Caco-2; experiment: as above
[6] = test system: Calu-3; experiment: relative viability EC50 (midpoint between 100% and the lowest measured viability); higher = less toxic
[7] = test system: Vero E6; experiment: as above
[8] = test system: HepG2; experiment: as above
[9] = test system: U2OS; experiment: as above
[10] = test system: Caco-2; experiment: as above
[11] = test system: Calu-3; experiment: drug sensitivity score (DSS) for viability; higher = more toxic; extreme values may be limits of the assay
[12] = test system: Vero E6; experiment: as above
[13] = test system: HepG2; experiment: as above
[14] = test system: U2OS; experiment: as above
[15] = test system: Caco-2; experiment: as above

| SMILES | cell viability ([1]; 1 nM) | cell viability ([1]; 10 nM) | cell viability ([1]; 100 nM) | cell viability ([1]; 1000 nM) | cell viability ([1]; 10000 nM) | cell viability ([2]; 1 nM) | cell viability ([2]; 10 nM) | cell viability ([2]; 100 nM) | cell viability ([2]; 1000 nM) | cell viability ([2]; 10000 nM) | cell viability ([3]; 1 nM) | cell viability ([3]; 10 nM) | cell viability ([3]; 100 nM) | cell viability ([3]; 1000 nM) | cell viability ([3]; 10000 nM) | cell viability ([4]; 1 nM) | cell viability ([4]; 10 nM) | cell viability ([4]; 100 nM) | cell viability ([4]; 1000 nM) | cell viability ([4]; 10000 nM) | cell viability ([5]; 1 nM) | cell viability ([5]; 10 nM) | cell viability ([5]; 100 nM) | cell viability ([5]; 1000 nM) | cell viability ([5]; 10000 nM) | relative viability EC50 [6] | relative viability EC50 [7] | relative viability EC50 [8] | relative viability EC50 [9] | relative viability EC50 [10] | drug sensitivity score [11] | drug sensitivity score [12] | drug sensitivity score [13] | drug sensitivity score [14] | drug sensitivity score [15] |
| --- | --- | --- | --- | --- | --- | --- | --- | --- | --- | --- | --- | --- | --- | --- | --- | --- | --- | --- | --- | --- | --- | --- | --- | --- | --- | --- | --- | --- | --- | --- | --- | --- | --- | --- | --- |
| CN(C)CCC(c1ccc(Br)cc1)c1ccccn1 (stereo not given) [brompheniramine] | 94.9% | 99.5% | 96.6% | 94.5% | 88.9% | 98.8% | 102% | 100% | 105% | 94.9% | 99.3% | 98.5% | 96.4% | 93.7% | 88.1% | 106% | 101% | 102% | 97.6% | 102% | 92.3% | 75.3% | 96.6% | 101% | 96.2% | > 10 µM | > 10 µM | > 10 µM | > 10 µM | > 10 µM | 0 | 0 | 0 | 0 | 0 |
| O=C(Nc1cccc(Cl)c1)c1ccccn1 | 94.5% | 95.8% | 95.9% | 114% | 102% | 107% | 102% | 107% | 99.3% | 103% | 111% | 100% | 105% | 97.3% | 107% | 102% | 104% | 99.8% | 108% | 101% | 87.9% | 102% | 98% | 96.8% | 102% | > 10 µM | > 10 µM | > 10 µM | > 10 µM | > 10 µM | 0 | 0 | 0 | 0 | 0 |
| CCC1(C)CC(=O)NC(=O)C1 [bemegride] | 92.2% | 114% | 101% | 105% | 98.1% | 98.2% | 102% | 94.6% | 99.1% | 112% | 102% | 101% | 108% | 90.8% | 112% | 100% | 96.6% | 98.6% | 99.8% | 102% | 102% | 90.1% | 90.8% | 94.8% | 98.8% | > 10 µM | > 10 µM | > 10 µM | > 10 µM | > 10 µM | 0 | 0 | 0 | 0 | 0 |
| CC(C)c1c2cc(-c3ccnc(N[C@H]4CC[C@H](NC5CCOCC5)CC4)n3)ccc2nn1C | 105% | 107% | 108% | 60.3% | 43.3% | 93.8% | 96.7% | 88% | 86% | 4.7% | 98.9% | 101% | 83.2% | 10.1% | 9.8% | 99% | 95% | 99.8% | 42.8% | 4.6% | 94.6% | 96.6% | 94.8% | 53.6% | 31.3% | 0.719 µM | 2 µM | 0.18 µM | 0.851 µM | 0.589 µM | 7.7 | 7.6 | 19.1 | 12 | 9.6 |
| O=C(Nc1ccc(S(=O)(=O)Nc2ccccc2Cl)c(Cl)c1)c1ccccn1 | 108% | 91.9% | 89.8% | 87.3% | 98.2% | 91.6% | 96.7% | 93.6% | 101% | 105% | 99.3% | 99.8% | 91.4% | 101% | 103% | 94.8% | 93.7% | 103% | 97.8% | 98.6% | 95.7% | 88.6% | 104% | 101% | 89.8% | > 10 µM | > 10 µM | > 10 µM | > 10 µM | > 10 µM | 1.8 | 0 | 0 | 0 | 0 |
| O=C(O)C1CSCN1 (stereo not given) [timonacic] | 115% | 94.9% | 94.6% | 109% | 104% | 97% | 99.6% | 97.6% | 98.9% | 94.1% | 94.4% | 98.7% | 88.1% | 98.4% | 97.9% | 103% | 98.2% | 99.5% | 98.8% | 102% | 101% | 102% | 96.4% | 88.3% | 102% | > 10 µM | > 10 µM | > 10 µM | > 10 µM | > 10 µM | 0 | 0 | 0 | 0 | 0 |
| COc1ccc2cc(CCC(C)=O)ccc2c1 [nabumetone] | 98.2% | 90.6% | 86.7% | 106% | 95.4% | 101% | 104% | 101% | 93.8% | 88.1% | 99.8% | 97.8% | 105% | 90.8% | 95.8% | 98.5% | 95.2% | 99.9% | 93.3% | 101% | 111% | 90.4% | 89.2% | 97.4% | 94.5% | > 10 µM | > 10 µM | > 10 µM | > 10 µM | > 10 µM | 0 | 0.3 | 0 | 0 | 0 |
| CCS(=O)(=O)N1CCN(c2ccc(Nc3ncc(C(N)=O)c(NC4CC4)n3)cc2)CC1 | 92.1% | 111% | 110% | 116% | 128% | 97.4% | 94.8% | 99.5% | 85.6% | 89.6% | 97.6% | 94.3% | 97.3% | 76.3% | 79.1% | 95.9% | 103% | 96.4% | 89.8% | 27.4% | 99.6% | 95.4% | 91.9% | 86.8% | 99.1% | > 10 µM | > 10 µM | > 10 µM | 2.04 µM | > 10 µM | 0 | 0.3 | 4 | 5.7 | 0 |
| C[C@H](Nc1cc(NS(=O)(=O)N2CCC2)nc(SCc2cccc(F)c2F)n1)[C@@H](O)CO [SRT3190] | 104% | 97.1% | 99.9% | 89.9% | 98.5% | 102% | 100% | 95.2% | 98.5% | 96.4% | 97.6% | 90.1% | 91% | 111% | 96% | 98.4% | 95.2% | 100% | 93.2% | 94.5% | 103% | 91% | 93.3% | 96% | 101% | > 10 µM | > 10 µM | > 10 µM | > 10 µM | > 10 µM | 0 | 0 | 0 | 0 | 0 |
| CCC(C)CCCC(=O)N[C@@H](CCN)C(=O)N[C@H](C(=O)N[C@@H](CCN)C(=O)N[C@H]1CCNC(=O)[C@H]([C@@H](C)O)NC(=O)[C@H](CCN)NC(=O)[C@H](CCN)NC(=O)[C@H](CC(C)C)NC(=O)[C@@H](CC(C)C)NC(=O)[C@H](CCN)NC1=O)[C@@H](C)O (stereo not given in full) [colistin] | 100 ± 4% | 93.4 ± 4.2% | 94.3 ± 4.8% | 98 ± 15% | 85.4 ± 7.2% | 101 ± 2.5% | 101 ± 2.5% | 104 ± 2.5% | 98.5 ± 1.2% | 103 ± 1.6% | 94 ± 1.7% | 105 ± 2% | 99.3 ± 11% | 103 ± 2% | 97.5 ± 8.1% | 99.7 ± 1.4% | 100 ± 2% | 97.8 ± 0.14% | 102.75 ± 0.071% | 99.2 ± 1.1% | 94.7 ± 6.2% | 98.4 ± 1.8% | 101 ± 7.6% | 104 ± 1.4% | 101 ± 10% | > 10 µM | > 10 µM | > 10 µM | > 10 µM | > 10 µM | 0.95 ± 1.3 | 0 | 0 | 0 | 0 |
| O=C(CCc1ccc(O)cc1)c1c(O)cc(O)cc1O[C@@H]1O[C@H](CO)[C@@H](O)[C@H](O)[C@H]1O [phlorizin] | 89.7% | 95.5% | 93.2% | 94.3% | 95.3% | 96.4% | 97.9% | 98.4% | 96.7% | 97.3% | 107% | 87.5% | 94.9% | 96.9% | 106% | 96.7% | 98.5% | 93.3% | 104% | 94.5% | 94.3% | 118% | 98.3% | 97.7% | 93.7% | > 10 µM | > 10 µM | > 10 µM | > 10 µM | > 10 µM | 0 | 0 | 0 | 0 | 0 |
